In patent US10188695B2, “Calcineurin inhibitors for use in the treatment of lesional vestibular disorders” (Institut National De La Santé Et De La Recherche Médicale, priority 2012, dated 2019):

Tested on: excitotoxically induced lasting vestibular deficits
Test: Kainic acid excitotoxic vestibular lesion in rats, spontaneous nystagmus by infra-red videonystagmography (FK-506 treatment)
Type: in vivo, rat
Settings: t=24 h
Protocol: Two inverted 3 mm bolts partially encased in dental acrylic were surgically fixed to the skull of female Long-Evans rats under deep ketamine-xylazine anesthesia using self-tapping surgical screws and cyanoacrylate. Each animal was allowed to recover for 1 week before experiencing 4 training sessions with head fixation (5-10 min) of increasing duration in the week preceding the experiments.
Under visual control using a surgical microscope, each rat received transtympanic injections of 50 μL 15 mM kainic acid in physiological serum with 10 mg/mL benzyl alcohol at t=0 h and 25 μL 15 mM kanic acid in physiological serum with 10 mg/mL benzyl alcohol at t=2 h.
At t=1 h the behaviorally associated vestibular deficits of each transtympanically injected animal was determined using 5 classical criteria each scored on a 0-4 scale: Circling, head-bobbing, degree of head-tilt, tail-hanging reflex deficit and air-righting reflex deficit. […]
Spontaneous eye-movements were recorded at t=1 h and t=24 h in the dark using an ISCAN ETL-200 infra-red videooculography system under head-fixed conditions. […]
The spontaneous nystagmus frequency in videooculography traces recorded at t=1 h (pre-treatment) and t=24 h (chronic deficit) was determined using custom routines written in MatLab R2011b (The Mathworks, Natick, Mass.). […]

C=CC[C@@H]1/C=C(\C)C[C@H](C)C[C@H](OC)[C@H]2O[C@@](O)(C(=O)C(=O)N3CCCC[C@H]3C(=O)O[C@H](/C(C)=C/[C@@H]3CC[C@@H](O)[C@H](OC)C3)[C@H](C)[C@@H](O)CC1=O)[C@H](C)C[C@@H]2OC [FK-506, tacrolimus]
normalized chronic spontaneous nystagmus frequency (normalized to group mean at t=1 h, single i.p. injection 2.5 mg/kg at t=1 h, Long-Evans rats, in the dark): 26.9±11.8%
reduction of lasting vestibular deficits (spontaneous nystagmus in the dark) vs sham (single i.p. injection 2.5 mg/kg, p=0.014): 43%
